# Assay results from patent US7256187B2, “Rifamycin C-11 oxime derivatives effective against drug-resistant microbes” (Cumbre Pharmaceuticals Inc., priority 2004, dated 2007).
# Tests used:
# Type in all cases: cell-based
# [1] = system: Staphylococcus aureus ATCC29213; test: MIC, microbroth dilution; conditions: Staphylococcus aureus ATCC29213, rifS; read-out: Antimicrobial activity (MIC)
# [2] = system: Staphylococcus aureus ATCC29213 rpoB^D417Y; test: microbe, parasite or virus in culture; conditions: Staphylococcus aureus ATCC29213 rpoB^D417Y, rifR; read-out: Antimicrobial activity (MIC)
# Experimental: (§1) Representative compounds were assayed for antimicrobial activity as follows: Minimum Inhibitory Concentrations (“MICs”) were determined by the microbroth dilution method as per NCCLS guidelines (National Committee for Clinical Laboratory Standards. 2000. Methods for dilution antimicrobial susceptibility tests for bacteria that grow aerobically, 5th ed. M7-A5. National Committee for Clinical Laboratory Standards, Wayne, Pa.), except that all growth incubations were conducted at 37° C. Bacterial cultures were tested in the following bacteriological media: S. aureus, S. epidermidis, and E. coli in Cation-Adjusted Mueller-Hinton Broth, S. pneumoniae in THY Broth supplemented with 1 mg/mL catalase under 5% CO2 atmosphere, S. pyogenes in THY Broth, E. faecalis in BHI Broth, H. influenzae in BHI Broth supplemented with 0.75 μL of 1 mg/mL NAD and 150 μL of 1 mg/ml hematin per 5 mL, and M. smegmatis in Middlebrook Broth plus ADC Enrichment.
# (§2) S. aureus ATCC 29213 RpoB^H418Y is a rifampin-resistant strain with a mutation in the RpoB gene of RNA polymerase. […] S. aureus EN1252a gyrA^S84L grlA^S80F is a quinolone-resistant strain due to double gene mutations of DNA gyrase and topoisomerase IV.
# [3] = system: Staphylococcus aureus ATCC29213 rpoB^H418Y; test: microbe, parasite or virus in culture; conditions: Staphylococcus aureus ATCC29213 rpoB^H418Y, rifR; read-out: Antimicrobial activity (MIC)
# Experimental: as §1, §2
# [4] = system: Staphylococcus aureus EN1252a gyrA^S84L grlA^S80F; test: microbe, parasite or virus in culture; conditions: Staphylococcus aureus EN1252a gyrA^S84L grlA^S80F, cipR; read-out: Antimicrobial activity (MIC)
# Experimental: as §1, §2
# [5] = system: Staphylococcus epidermidis ATCC12228; test: MIC, microbroth dilution; conditions: Staphylococcus epidermidis ATCC12228, rifS; read-out: Antimicrobial activity (MIC)
# [6] = system: Streptococcus pneumoniae ATCC6303; test: MIC, microbroth dilution; conditions: Streptococcus pneumoniae ATCC6303, rifS; read-out: Antimicrobial activity (MIC)
# [7] = system: Streptococcus pyogenes ATCC19615; test: MIC, microbroth dilution; conditions: Streptococcus pyogenes ATCC19615, rifS; read-out: Antimicrobial activity (MIC)
# [8] = system: Enterococcus faecalis ATCC29212; test: MIC, microbroth dilution; conditions: Enterococcus faecalis ATCC29212, rifS; read-out: Antimicrobial activity (MIC)
# [9] = system: Haemophilus influenzae ATCC10211; test: MIC, microbroth dilution; conditions: Haemophilus influenzae ATCC10211, rifS; read-out: Antimicrobial activity (MIC)
# [10] = system: Escherichia coli ATCC25922; test: MIC, microbroth dilution; conditions: Escherichia coli ATCC25922, rifS; read-out: Antimicrobial activity (MIC)
# [11] = system: Mycobacterium smegmatis ATCC700084; test: MIC, microbroth dilution; conditions: Mycolicibacterium smegmatis; Mycobacterium smegmatis ATCC700084, rifS; read-out: Antimicrobial activity (MIC)
Structure (SMILES),MIC [1] [µg/mL],MIC [2] [µg/mL],MIC [3] [µg/mL],MIC [4] [µg/mL],MIC [5] [µg/mL],MIC [6] [µg/mL],MIC [7] [µg/mL],MIC [8] [µg/mL],MIC [9] [µg/mL],MIC [10] [µg/mL],MIC [11] [µg/mL]
"COc1c(N2CCN(C(=O)CO/N=C3/c4c5c(C)c(O)c6c4C(=O)C(N4CCOCC4)=C(NC(=O)/C(C)=C\C=C\[C@H](C)[C@H](O)[C@@H](C)[C@@H](O)[C@@H](C)[C@H](OC(C)=O)[C@H](C)[C@@H](OC)/C=C/O[C@@]3(C)O5)C6=O)C(C)C2)c(F)cc2c(=O)c(C(=O)O)cn(C3CC3)c12 (some centres unmarked) [Example 30, 11-Deoxy-3-(morpholin-4-yl)-11-{2-oxo-2-[4-(3-carboxy-1-cyclopropyl-6-fluoro-8-methoxy-4-oxo-1,4-dihydroquinolin-7-yl)-2-methylpiperazin-1-yl]ethoxyimino}rifamycin S]",0.004 to 0.5,0.25 to 32,0.125 to 16,0.004 to 0.5,0.0005 to 0.063,0.0002 to 0.125,0.0005 to 0.063,2 to 32,0.03 to 2,0.125 to 8,0.5 to 64
"CO[C@H]1/C=C/O[C@@]2(C)Oc3c(C)c(O)c4c(c3/C2=N/O)C(=O)C(N2CCN(c3cc5c(cc3F)c(=O)c(C(=O)O)cn5C3CC3)CC2)=C(NC(=O)/C(C)=C\C=C\[C@H](C)[C@H](O)[C@@H](C)[C@@H](O)[C@@H](C)[C@H](OC(C)=O)[C@@H]1C)C4=O [Example 33, 11-Deoxy-3-[4-(3-carboxy-1-cyclopropyl-6-fluoro-4-oxo-1,4-dihydroquinolin-7-yl)piperazin-1-yl]-11-hydroxyiminorifamycin S]",0.004 to 0.5,0.25 to 32,0.125 to 16,0.004 to 0.5,0.0005 to 0.063,0.0002 to 0.125,0.0005 to 0.063,2 to 32,0.03 to 2,0.125 to 8,0.5 to 64
"CO[C@H]1/C=C/O[C@@]2(C)Oc3c(C)c(O)c4c(c3/C2=N/O)C(=O)C(N2CCOCC2)=C(NC(=O)/C(C)=C\C=C\[C@H](C)[C@H](O)[C@@H](C)[C@@H](O)[C@@H](C)[C@H](OC(C)=O)[C@@H]1C)C4=O [Example 34, 11-Deoxy-3-(morpholin-4-yl)-11-hydroxyiminorifamycin S]",0.004 to 0.5,0.25 to 32,0.125 to 16,0.004 to 0.5,0.0005 to 0.063,0.0002 to 0.125,0.0005 to 0.063,2 to 32,0.03 to 2,0.125 to 8,0.5 to 64
"CO/N=C1/c2c3c(C)c(O)c4c2C(=O)C(N2CCOCC2)=C(NC(=O)/C(C)=C\C=C\[C@H](C)[C@H](O)[C@@H](C)[C@@H](O)[C@@H](C)[C@H](OC(C)=O)[C@H](C)[C@@H](OC)/C=C/O[C@@]1(C)O3)C4=O [Example 35, 11-Deoxy-3-(morpholin-4-yl)-11-methoxyiminorifamycin S]",0.004 to 0.5,0.25 to 32,0.125 to 16,0.004 to 0.5,0.0005 to 0.063,0.0002 to 0.125,0.0005 to 0.063,2 to 32,0.03 to 2,0.125 to 8,0.5 to 64
